For 3 compounds, pain threshold and pain pressure threshold results are on record in patent US8802656B2, “Purified phospholipid-non-steroidal anti-inflammatory drug associated compositions and methods for preparing and using same” (priority 2004, dated 2014).

Molecules are shown by their SMILES. Entries after “also recorded” stand apart in the source; their conditions may differ.

The test concerns rats injected with CFA in a hind paw. Nature of the test: Pain pressure threshold (modified Randall-Selitto) in rats with CFA-inflamed hind paw, acute oral dosing. The class given is in vivo, rat. As to conditions: for pain pressure threshold: ibuprofen 20 or 50 mg/kg, indomethacin 1 mg/kg intragastric, two hours after dosing, CFA 4 days before, FIG. 4. Here is the method: In the second in vivo experiment, we compared the analgesic activity of the acetone preparation of PC-ibuprofen to that of ibuprofen alone (at doses of 20 and 50 mg/kg) in rats and compared the response to a sub-threshod dose of indomethacin (1 mg/kg). The measurements were made on rats, in which 0.1 mL of Complete Freund's Adjuvant (CFA) was subcutaneously injected into the dorsal surface of the left hindpaw, 4 days previously to increase the affected paw's sensitivity to pressure. […] Myeloperoxidase Activity In this experiment, we evaluated the analgesic activity of the test material using a rodent model system previously described in detail. This was accomplished by initially inducing inflammation of a hind paw of male Sprague Dawley rats by subcutaneously injecting 0.1 mL of Complete Freund's Adjuvant (Sigma Chemical Co. St. Louis, Mo.) into the doral surface of the left hind paw. […] For comparison, we also intragastrically administered a group of rats with a sub-threshold dose (1 mg/kg) of the NSAID, indomethacin, that was suspended in 1% methyl cellulose.

On to `CC(=O)Oc1ccccc1C(=O)O` [ASA, Aspirin], for which, under “CFA induced inflammation, Randall Siletto procedure, ASA formulations, FIG. 13”, the pain threshold result is “performed similarly”.

Regarding `CC(C)Cc1ccc(C(C)C(=O)O)cc1` (stereo not shown) [ibuprofen], the pain pressure threshold result (listed as generic ibuprofen) was “dose-dependent increase in pain pressure threshold” and the pain pressure threshold result (listed as unmodified ibuprofen) is reported as “apparent dose-dependent increase in pain pressure threshold”.

Regarding `COc1ccc2c(c1)c(CC(=O)O)c(C)n2C(=O)c1ccc(Cl)cc1` [indomethacin], the pain pressure threshold result is “no effect; also recorded: non-significant response”.
